From ChEMBL document CHEMBL1201862, “PubChem BioAssay data set” (2004)
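How tested: cells in 96-well plates exposed to compound for 48 hours at five concentrations. GI50: concentration for 50% inhibition of growth.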 Calls of active or inactive are those of the source. Cut-off read from the data, not from the text of the source: active = GI50 up to about 1.1 µM and inactive = higher.

Legend:
Assay in all cases: NCI-60 cell line screen, 48 h
EKVX = tested on: EKVX
A498 = tested on: A498
NCI-H460 = tested on: NCI-H460
HOP-62 = tested on: HOP-62
ACHN = tested on: ACHN
T47D = tested on: T47D
HT-29 = tested on: HT-29
COLO 205 = tested on: COLO 205
SF-268 = tested on: SF-268
MDA-N = tested on: MDA-N
KM12 = tested on: KM12
UACC-257 = tested on: UACC-257
LOX IMVI = tested on: LOX IMVI
NCI-H23 = tested on: NCI-H23
Hs-578T = tested on: Hs-578T
SR = tested on: SR
SW-620 = tested on: SW-620
K562 = tested on: K562
SNB-19 = tested on: SNB-19
NCI-H226 = tested on: NCI-H226
A549 = tested on: A549
HCC 2998 = tested on: HCC 2998
Malme-3M = tested on: Malme-3M
MCF7 = tested on: MCF7
RXF 393 = tested on: RXF 393
UO-31 = tested on: UO-31
OVCAR-8 = tested on: OVCAR-8
OVCAR-5 = tested on: OVCAR-5
SK-MEL-28 = tested on: SK-MEL-28
UACC-62 = tested on: UACC-62
SF-295 = tested on: SF-295
IGROV-1 = tested on: IGROV-1
CCRF-CEM = tested on: CCRF-CEM
SK-OV-3 = tested on: SK-OV-3
MDA-MB-435 = tested on: MDA-MB-435
DU-145 = tested on: DU-145
TK-10 = tested on: TK-10
U-251 = tested on: U-251
NCI/ADR-RES = tested on: NCI/ADR-RES
PC-3 = tested on: PC-3
OVCAR-3 = tested on: OVCAR-3
CAKI-1 = tested on: CAKI-1
MDA-MB-231 = tested on: MDA-MB-231
SK-MEL-2 = tested on: SK-MEL-2
HL-60 = tested on: HL-60
HOP-92 = tested on: HOP-92
M14 = tested on: M14
SNB-75 = tested on: SNB-75
MOLT-4 = tested on: MOLT-4
HCT-15 = tested on: HCT-15
OVCAR-4 = tested on: OVCAR-4
RPMI-8226 = tested on: RPMI-8226
SK-MEL-5 = tested on: SK-MEL-5
786-0 = tested on: 786-0
NCI-H522 = tested on: NCI-H522
SN12C = tested on: SN12C
SF-539 = tested on: SF-539
HCT-116 = tested on: HCT-116

CC(C)c1ccccc1SCc1cc(=O)cc(CSc2ccccc2C(C)C)o1
GI50 (EKVX): 19.3 µM (inactive)
GI50 (A498): 20.3 µM (inactive)
GI50 (NCI-H460): 21.1 µM (inactive)
GI50 (HOP-62): 20.7 µM (inactive)
GI50 (ACHN): 32.6 µM (inactive)
GI50 (T47D): 24 µM (inactive)
GI50 (HT-29): 19.8 µM (inactive)
GI50 (COLO 205): 37.2 µM (inactive)
GI50 (SF-268): 16.8 µM (inactive)
GI50 (MDA-N): 18.8 µM (inactive)
GI50 (KM12): 15.7 µM (inactive)
GI50 (UACC-257): 20.5 µM (inactive)
GI50 (LOX IMVI): 26.8 µM (inactive)
GI50 (NCI-H23): 37.6 µM (inactive)
GI50 (Hs-578T): 13.5 µM (inactive)
GI50 (SR): 31.7 µM (inactive)
GI50 (SW-620): 34.2 µM (inactive)
GI50 (K562): 48.1 µM (inactive)
GI50 (SNB-19): 32.7 µM (inactive)
GI50 (NCI-H226): 21.2 µM (inactive)
GI50 (A549): 19.7 µM (inactive)
GI50 (HCC 2998): 30.3 µM (inactive)
GI50 (Malme-3M): 25.2 µM (inactive)
GI50 (MCF7): 18.2 µM (inactive)
GI50 (RXF 393): 31 µM (inactive)
GI50 (UO-31): 27.4 µM (inactive)
GI50 (OVCAR-8): 22.7 µM (inactive)
GI50 (OVCAR-5): 15.3 µM (inactive)
GI50 (SK-MEL-28): 32.7 µM (inactive)
GI50 (UACC-62): 16.7 µM (inactive)
GI50 (SF-295): 17.7 µM (inactive)
GI50 (IGROV-1): 14.5 µM (inactive)
GI50 (CCRF-CEM): 26.9 µM (inactive)
GI50 (SK-OV-3): 22.1 µM (inactive)
GI50 (MDA-MB-435): 15 µM (inactive)
GI50 (DU-145): 23.1 µM (inactive)
GI50 (TK-10): 17.9 µM (inactive)
GI50 (U-251): 22 µM (inactive)
GI50 (NCI/ADR-RES): 17.7 µM (inactive)
GI50 (PC-3): 13.7 µM (inactive)
GI50 (OVCAR-3): 17.9 µM (inactive)
GI50 (CAKI-1): 18.5 µM (inactive)
GI50 (MDA-MB-231): 17.9 µM (inactive)
GI50 (SK-MEL-2): 17.4 µM (inactive)
GI50 (HL-60): 22.9 µM (inactive)
GI50 (HOP-92): 15.2 µM (inactive)
GI50 (M14): 20.2 µM (inactive)
GI50 (SNB-75): 19.4 µM (inactive)
GI50 (MOLT-4): 22.6 µM (inactive)
GI50 (HCT-15): 24.7 µM
GI50 (OVCAR-4): 19.5 µM (inactive)
GI50 (RPMI-8226): 32.4 µM (inactive)
GI50 (SK-MEL-5): 24.1 µM (inactive)

CC(NC(=O)Cc1ccc(OP(=O)(OCc2ccc([N+](=O)[O-])o2)N(C)CCCCCl)cc1)c1ccc(OCC2CCCCC2)c(C(N)=O)c1 (stereo not drawn)
GI50 (A498): 3.01 µM (inactive)
GI50 (NCI-H460): 2.79 µM (inactive)
GI50 (HOP-62): 2.65 µM (inactive)
GI50 (ACHN): 3.56 µM (inactive)
GI50 (T47D): 1.18 µM (inactive)
GI50 (HT-29): 1.39 µM (inactive)
GI50 (COLO 205): 1.63 µM (inactive)
GI50 (SF-268): 2.22 µM (inactive)
GI50 (MDA-N): 1.88 µM (inactive)
GI50 (KM12): 2.4 µM (inactive)
GI50 (UACC-257): 1.67 µM (inactive)
GI50 (LOX IMVI): 1.74 µM (inactive)
GI50 (NCI-H23): 2.08 µM (inactive)
GI50 (786-0): 2.92 µM (inactive)
GI50 (Hs-578T): 1.92 µM (inactive)
GI50 (SR): 1.48 µM (inactive)
GI50 (NCI-H522): 2.25 µM (inactive)
GI50 (SW-620): 3.45 µM (inactive)
GI50 (K562): 2.77 µM (inactive)
GI50 (SNB-19): 3.3 µM (inactive)
GI50 (NCI-H226): 2.48 µM (inactive)
GI50 (A549): 1.87 µM (inactive)
GI50 (HCC 2998): 1.35 µM (inactive)
GI50 (Malme-3M): 1.77 µM (inactive)
GI50 (MCF7): 2.52 µM (inactive)
GI50 (RXF 393): 1.99 µM (inactive)
GI50 (UO-31): 2.58 µM (inactive)
GI50 (OVCAR-8): 3.6 µM (inactive)
GI50 (OVCAR-5): 3.01 µM (inactive)
GI50 (SK-MEL-28): 1.65 µM (inactive)
GI50 (UACC-62): 1.74 µM (inactive)
GI50 (SF-295): 2.24 µM (inactive)
GI50 (IGROV-1): 1.91 µM (inactive)
GI50 (CCRF-CEM): 0.906 µM (active)
GI50 (SK-OV-3): 3.08 µM (inactive)
GI50 (MDA-MB-435): 1.89 µM (inactive)
GI50 (SN12C): 1.96 µM (inactive)
GI50 (DU-145): 2.8 µM (inactive)
GI50 (TK-10): 3.22 µM (inactive)
GI50 (U-251): 2.14 µM (inactive)
GI50 (NCI/ADR-RES): 4.5 µM (inactive)
GI50 (PC-3): 2.88 µM (inactive)
GI50 (OVCAR-3): 1.66 µM (inactive)
GI50 (CAKI-1): 2.91 µM (inactive)
GI50 (MDA-MB-231): 2.08 µM (inactive)
GI50 (SK-MEL-2): 2.26 µM (inactive)
GI50 (HL-60): 2.22 µM (inactive)
GI50 (M14): 2.12 µM (inactive)
GI50 (MOLT-4): 1.52 µM (inactive)
GI50 (HCT-15): 2.39 µM
GI50 (OVCAR-4): 2.16 µM (inactive)
GI50 (SF-539): 2.02 µM (inactive)
GI50 (RPMI-8226): 0.574 µM (active)
GI50 (SK-MEL-5): 1.6 µM (inactive)
GI50 (HCT-116): 1.85 µM (inactive)
